Test results reported in publication PMC10258912, “Synthesis and Molecular Docking of New N-Acyl Hydrazones-Benzimidazole as hCA I and II Inhibitors” (Medicinal Chemistry (Shariqah (United Arab Emirates), 2023).
Where two headings read alike, the source gives them in different places.

Columns and labels:
[1] = target: T1, hCA II (Homo sapiens, UniProt P00918); assay: hCA II hydratase activity inhibition assay (Wilbur-Anderson method); format: biochemical; conditions: for relative inhibitory activity hCA II versus hCA I: comparison of IC50 values on hCA I and hCA II
T1 construct: made in house
Method: (§1) Purification of hCA I and hCA II by affinity chromatography was performed as described in the previous work.
(§2) The Wilbur-Anderson method, as modified by Wilber et al., was used to calculate CA activity. With the help of a bromothymol blue indicator and a measurement of the passing time, the pH changes were calculated using this approach, which causes the hydration of CO2 to release H^+ ions. The equation (to-tc/tc), where to and tc are the times for pH change of the enzymatic and nonenzymatic processes, respectively, was used to compute the enzyme unit (EU).
(§3) While keeping the concentration of the substrate constant, IC50 values for the various compounds were computed. Enzyme activities in the absence of inhibitors in the medium were taken as 100% activity. By assessing the hydratase activity in the presence of various inhibitor concentrations, the activity % values of enzymes were calculated. Utilizing graphs of activity %-[I] for each inhibitor, the IC50 value was determined. The Cheng-Prusoff equation was used to derive inhibition constants using the nonlinear least squares method.

[2] = target: T2, hCA I (Homo sapiens, UniProt P00915); assay: hCA I hydratase activity inhibition assay (Wilbur-Anderson method); format: biochemical; conditions: for Ki: Cheng-Prusoff equation
T2 construct: made in house
Method: as §1, §2, §3

[3] = hydratase activity, constant substrate concentration, read-out: IC50 hCA I

T2 sequence (P00915 whole entry): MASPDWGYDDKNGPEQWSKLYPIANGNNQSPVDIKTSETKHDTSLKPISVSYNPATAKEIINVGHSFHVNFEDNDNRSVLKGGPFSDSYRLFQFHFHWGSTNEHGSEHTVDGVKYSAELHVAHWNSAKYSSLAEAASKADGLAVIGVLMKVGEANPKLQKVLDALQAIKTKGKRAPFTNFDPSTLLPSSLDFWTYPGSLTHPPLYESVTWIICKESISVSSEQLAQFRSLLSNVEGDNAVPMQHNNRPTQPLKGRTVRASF

Compound	IC50 [2, 3]	relative inhibitory activity hCA II versus hCA I [1]	other results
CCOc1ccc(C=NNC(=O)c2ccc(-c3nc4ccccc4[nH]3)cc2)cc1 [Compound 3i, 4-(1H-benzimidazole-2-yl)-N’-(4-ethoxybenzylidene) benzohydrazide]	–	more inhibitory activity on hCA II than hCA I	–
N-(1H-benzimidazole-2-yl)-N’-benzylidenebenzo hydrazide [Compound 3a]	–	more inhibitory activity on hCA II than hCA I	–
CC(C)c1ccc(C=NNC(=O)c2ccc(-c3nc4ccccc4[nH]3)cc2)cc1 [Compound 3d, 4-(1H-benzimidazole-2-yl)-N’-(4-isopropylbenzylidene)benzohydrazide]	1870 nM	–	–
O=C(NN=Cc1ccc([N+](=O)[O-])cc1)c1ccc(-c2nc3ccccc3[nH]2)cc1 [Compound 3n, 4-(1H-benzimidazole-2-yl)-N’-(4-nitrobenzylidene) benzohydrazide]	–	more inhibitory activity on hCA II than hCA I	Ki [2]: 956 nM
COc1ccc(C=NNC(=O)c2ccc(-c3nc4ccccc4[nH]3)cc2)cc1 [Compound 3k, 4-(1H-benzimidazole-2-yl)-N’-(4-methoxybenzylidene)benzohydrazide]	–	more inhibitory activity on hCA II than hCA I	–
CCN(CC)c1ccc(C=NNC(=O)c2ccc(-c3nc4ccccc4[nH]3)cc2)cc1 [Compound 3c, 4-(1H-benzimidazole-2-yl)-N’-(4-(diethylamino)benzylidene)benzohydrazide]	–	–	IC50 [2]: 2090 nM
O=C(NN=Cc1ccc(OCc2ccccc2)cc1)c1ccc(-c2nc3ccccc3[nH]2)cc1 [Compound 3j, 4-(1H-benzimidazole-2-yl)-N’-(4-(benzyloxy)benzylidene)benzohydrazide]	1950 nM	–	–

Second part, led by results:

IC50 [2, 3]	Compound	relative inhibitory activity hCA II versus hCA I [1]	other results
2720 nM	O=C(NN=Cc1ccc(F)cc1)c1ccc(-c2nc3ccccc3[nH]2)cc1 [Compound 3l, 4-(1H-benzimidazole-2-yl)-N’-(4-fluorobenzylidene)benzohydrazide]	fairly close inhibitory properties on hCA I and hCA II	IC50 ([1]; hydratase activity, constant substrate concentration): 2740 nM
1680 nM	Cc1ccc(C=NNC(=O)c2ccc(-c3nc4ccccc4[nH]3)cc2)cc1 [Compound 3p, 4-(1H-benzimidazole-2-yl)-N’-(4-methylbenzyli-dene) benzohydrazide]	–	type of inhibition, hCA I [2]: noncompetitive; Ki [2]: 299 ± 10 nM
